Data from ChEMBL document CHEMBL1201862, “PubChem BioAssay data set” (2004).
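Briefly, cells in 96-well plates were exposed to five compound concentrations for 48 h, and endpoints were estimated by linear interpolation. The concentration for 50% growth inhibition is given as GI50.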 Calls of active or inactive are those of the source. Rule as the data show it: active = GI50 up to about 1.1 µM and inactive = higher.

Legend:
Assay in all cases: NCI anticancer screen, dose series, 48 h
[1] = tested on: LOX IMVI
[2] = tested on: TK-10
[3] = tested on: NCI-H226
[4] = tested on: A549
[5] = tested on: HL-60
[6] = tested on: MDA-MB-231
[7] = tested on: HCT-116
[8] = tested on: MDA-MB-435
[9] = tested on: RPMI-8226
[10] = tested on: KM12
[11] = tested on: UACC-257
[12] = tested on: UO-31
[13] = tested on: BT-549
[14] = tested on: NCI/ADR-RES
[15] = tested on: SK-MEL-28
[16] = tested on: EKVX
[17] = tested on: SN12C
[18] = tested on: OVCAR-4
[19] = tested on: OVCAR-5
[20] = tested on: NCI-H522
[21] = tested on: T47D
[22] = tested on: SW-620
[23] = tested on: NCI-H23
[24] = tested on: HCC 2998
[25] = tested on: DU-145
[26] = tested on: Hs-578T
[27] = tested on: ACHN
[28] = tested on: MDA-N
[29] = tested on: SR
[30] = tested on: COLO 205
[31] = tested on: HCT-15
[32] = tested on: CCRF-CEM
[33] = tested on: NCI-H460
[34] = tested on: SF-295
[35] = tested on: SNB-75
[36] = tested on: MCF7
[37] = tested on: RXF 393
[38] = tested on: OVCAR-8
[39] = tested on: IGROV-1
[40] = tested on: Malme-3M
[41] = tested on: SF-268
[42] = tested on: SNB-19
[43] = tested on: OVCAR-3
[44] = tested on: SK-OV-3
[45] = tested on: CAKI-1
[46] = tested on: M14
[47] = tested on: UACC-62
[48] = tested on: K562
[49] = tested on: HOP-62
[50] = tested on: U-251
[51] = tested on: MOLT-4
[52] = tested on: SF-539
[53] = tested on: 786-0
[54] = tested on: PC-3
[55] = tested on: SK-MEL-2
[56] = tested on: HT-29
[57] = tested on: HOP-92
[58] = tested on: A498
[59] = tested on: SK-MEL-5

CC(OC(=O)C(CC(=O)OC(C)(C)C)NC(=O)OC(C)(C)C)C(=O)OCc1ccccc1 (stereo not drawn)
GI50 [1]: > 100 µM (inactive) | GI50 [2]: > 100 µM (inactive) | GI50 [3]: > 100 µM (inactive) | GI50 [4]: > 100 µM (inactive) | GI50 [5]: > 100 µM (inactive) | GI50 [6]: > 100 µM (inactive) | GI50 [7]: > 100 µM (inactive) | GI50 [8]: > 100 µM (inactive) | GI50 [9]: > 100 µM (inactive) | GI50 [10]: > 100 µM (inactive) | GI50 [11]: > 100 µM (inactive) | GI50 [12]: > 100 µM (inactive) | GI50 [13]: > 100 µM (inactive) | GI50 [14]: > 100 µM (inactive) | GI50 [15]: > 100 µM (inactive) | GI50 [16]: > 100 µM (inactive) | GI50 [17]: > 100 µM (inactive) | GI50 [18]: > 100 µM (inactive) | GI50 [19]: > 100 µM (inactive) | GI50 [20]: > 100 µM (inactive) | GI50 [21]: > 100 µM (inactive) | GI50 [22]: > 100 µM (inactive) | GI50 [23]: > 100 µM (inactive) | GI50 [24]: > 100 µM (inactive) | GI50 [25]: > 100 µM (inactive) | GI50 [26]: > 100 µM (inactive) | GI50 [27]: > 100 µM (inactive) | GI50 [28]: > 100 µM (inactive) | GI50 [29]: > 100 µM (inactive) | GI50 [30]: > 100 µM (inactive) | GI50 [31]: > 100 µM | GI50 [32]: > 100 µM (inactive) | GI50 [33]: > 100 µM (inactive) | GI50 [34]: > 100 µM (inactive) | GI50 [35]: > 100 µM (inactive) | GI50 [36]: > 100 µM (inactive) | GI50 [37]: > 100 µM (inactive) | GI50 [38]: > 100 µM (inactive) | GI50 [39]: > 100 µM (inactive) | GI50 [40]: > 100 µM (inactive) | GI50 [41]: > 100 µM (inactive) | GI50 [42]: > 100 µM (inactive) | GI50 [43]: > 100 µM (inactive) | GI50 [44]: > 100 µM (inactive) | GI50 [45]: > 100 µM (inactive) | GI50 [46]: > 100 µM (inactive) | GI50 [47]: > 100 µM (inactive) | GI50 [48]: > 100 µM (inactive) | GI50 [49]: > 100 µM (inactive) | GI50 [50]: > 100 µM (inactive) | GI50 [51]: > 100 µM (inactive) | GI50 [52]: > 100 µM (inactive) | GI50 [53]: > 100 µM (inactive) | GI50 [54]: > 100 µM (inactive) | GI50 [55]: > 100 µM (inactive) | GI50 [56]: > 100 µM (inactive)

O=[N+]([O-])c1ccccc1S(=O)(=O)N1CCCc2cc(Cl)ccc21
GI50 [1]: 24.3 µM (inactive) | GI50 [2]: > 100 µM (inactive) | GI50 [3]: > 100 µM (inactive) | GI50 [4]: 38.7 µM (inactive) | GI50 [5]: 6.3 µM (inactive) | GI50 [6]: > 56.5 µM (inactive) | GI50 [7]: 16.2 µM (inactive) | GI50 [8]: 4.46 µM (inactive) | GI50 [9]: 9.02 µM (inactive) | GI50 [10]: 18.5 µM (inactive) | GI50 [11]: 12.6 µM (inactive) | GI50 [12]: 30.6 µM (inactive) | GI50 [13]: 8.91 µM (inactive) | GI50 [14]: 18 µM (inactive) | GI50 [15]: 61 µM (inactive) | GI50 [16]: 77.4 µM (inactive) | GI50 [17]: 82.4 µM (inactive) | GI50 [18]: > 100 µM (inactive) | GI50 [19]: > 93.1 µM (inactive) | GI50 [21]: 15.3 µM (inactive) | GI50 [22]: 17.1 µM (inactive) | GI50 [23]: 34 µM (inactive) | GI50 [24]: 38 µM (inactive) | GI50 [25]: > 90.6 µM (inactive) | GI50 [26]: 50.8 µM (inactive) | GI50 [27]: > 51.6 µM (inactive) | GI50 [28]: 4.46 µM (inactive) | GI50 [29]: 5.75 µM (inactive) | GI50 [30]: 38.7 µM (inactive) | GI50 [31]: 15.5 µM | GI50 [32]: 8.91 µM (inactive) | GI50 [33]: 18.6 µM (inactive) | GI50 [34]: 23.5 µM (inactive) | GI50 [35]: 4.59 µM (inactive) | GI50 [36]: 28.2 µM (inactive) | GI50 [37]: 13.8 µM (inactive) | GI50 [38]: 88.9 µM (inactive) | GI50 [39]: 39 µM (inactive) | GI50 [40]: > 100 µM (inactive) | GI50 [41]: > 68.1 µM (inactive) | GI50 [57]: 21.5 µM (inactive) | GI50 [42]: > 80.2 µM (inactive) | GI50 [58]: 27.2 µM (inactive) | GI50 [43]: 26.2 µM (inactive) | GI50 [44]: 26.9 µM (inactive) | GI50 [45]: > 100 µM (inactive) | GI50 [46]: 46.5 µM (inactive) | GI50 [59]: 19.6 µM (inactive) | GI50 [47]: 23.9 µM (inactive) | GI50 [48]: 3.46 µM (inactive) | GI50 [49]: 60.3 µM (inactive) | GI50 [51]: 6.35 µM (inactive) | GI50 [52]: 32.4 µM (inactive) | GI50 [53]: > 85.1 µM (inactive) | GI50 [54]: 18 µM (inactive) | GI50 [55]: > 52.6 µM (inactive) | GI50 [56]: 9.35 µM (inactive)
